Assay results published in paper PMC11614538, “The proline-rich antimicrobial peptide B7-005: low bacterial resistance, safe for human cells and effective in zebrafish embryo bacteraemia model” (Open Biology, 2024).
Like-named read-outs stand apart in the source and are kept apart here. Residues, ends and D or L forms follow the SMILES beside them.

What was measured:
a human cell line = conditions: ref [20]; cited from earlier work
Description: In a previous work, we systematically modified Bac7(1-16), an active N-terminal fragment of the natural PrAMP full-length Bac7 [19], to identify the amino acid residues essential for inhibiting protein synthesis, with the goal to discover new derivatives with improved antimicrobial activity. […] B7-005 ...

[1] = system: osteosarcoma cell line MG-63; conditions: cited from earlier work
Description: In this study, the response of cells to B7-005 varied according to the cell type. The tumoral MEC-1 cells were the most sensitive to the cytotoxic effects of the peptide, displaying even higher sensitivity to B7-005 than observed in a previous study. However, we note that in the previous study, the peptides were generated by SPOT synthesis and therefore were of lower-grade purification, which likely explains the differences observed with our study. […] These cells were the only non-immortalized or tumor ...

zebrafish embryos = assay: In vivo toxicity in zebrafish embryos; conditions: for mortality of larvae: within 72 h, groups of 30, at least three independent experiments
Method: All experimental procedures were performed in compliance with relevant laws and institutional guidelines and were performed under the Italian Ministerial Approval (code 1FF80.N.A5X). Zebrafish eggs were placed in E3 Medium (5 mM NaCl, 0.17 mM KCl, 0.33 mM CaCl2, 0.33 mM MgSO4) and incubated at 28°C. Twenty-four hours post-fertilization (hpf), the eggs were manually dechorionated. Later, embryos were placed in E3 Medium supplemented with a final concentration of 0.2 mM phenylthiourea (PTU, Sigma-Aldrich Co.) to inhibit the production of melanin. Forty-eight hpf embryos were anaesthetized using tricaine at a final concentration of 0.02% (v/v) and placed on agarose plates, to remove the excess water and to facilitate injections. Each condition for toxicity evaluation and bacteraemia model was tested on groups of 30 embryos in at least three independent experiments. Only for biodistribution assay, groups of 10 embryos were used for two independent experiments. The injections of peptide or bacteria were performed in a volume of 4.6 nl delivered in the duct of Cuvier of embryos using capillary glass and a Nanoject II Auto-Nanoliter Injector (Drummond Scientific Co., Broomall, PA, USA) and a SteREO Microscope Discovery.V8 (Zeiss, Oberkochen, Germany, UE).
In vivo toxicity of B7-005 was evaluated by injecting 4.6 nl of sterile PBS containing increasing concentrations of the peptide (up to 64 mg kg^−1) in the duct of Cuvier of embryos. PBS only was injected in untreated control groups. The toxicity of the compound was assessed evaluating the mortality of larvae, kept in E3 medium at 28°C, within 72 h after injection.

## CC[C@H](C)[C@H](NC(=O)[C@H](CCCNC(=N)N)NC(=O)[C@@H](N)Cc1c[nH]c2ccccc12)C(=O)N[C@@H](CCCNC(=N)N)C(=O)N[C@@H](CCCNC(=N)N)C(=O)N[C@@H](CCCNC(=N)N)C(=O)N[C@@H](Cc1c[nH]c2ccccc12)C(=O)N1CCC[C@H]1C(=O)N[C@@H](CCCNC(=N)N)C(=O)N[C@@H](CC(C)C)C(=O)N1CCC[C@H]1C(=O)N[C@@H](CCCNC(=N)N)C(=O)N1CCC[C@H]1C(=O)N[C@@H](CCCNC(=N)N)C(=O)N[C@@H](Cc1c[nH]c2ccccc12)C(=O)N[C@@H](CCCNC(=N)N)C(=O)O [B7-005] (H-WRIRRRWPRLPRPRWR-OH)
A human cell line
  cytotoxicity relative to Bac7(1-16): did not increase cytotoxicity relative to Bac7(1-16)
[1]; equivalent of 128 µg ml^−1, ref [35]
  concentration up to which MG-63 cells remained unaffected: ≥ 54 µM
[1]; ref [35]
  concentration up to which MG-63 cells remained unaffected: ≥ 128 µg/mL
Zebrafish embryos; 24 mg kg^−1, injected in duct of Cuvier, untreated control 10%
  mortality of larvae: ≤ 20%
Zebrafish embryos; 32 mg kg^−1, injected in duct of Cuvier
  mortality of larvae: ~ 40%
Zebrafish embryos; injected in duct of Cuvier, 72 h
  lowest concentration significantly reducing viability of larvae: 32 mg/kg
Zebrafish embryos; injected in duct of Cuvier, zebrafish embryos, 72 h
  highest tolerated amount: 24 mg/kg
